From US9758524B2, “4-imidazopyridazin-1-yl-benzamides as Btk inhibitors” (Merck Sharp & Dohme B.V., priority 2011, dated 2017)
Read-outs that look alike come from different tables or passages of the source.

How the values were obtained:
Btk enzyme (His-Btk) = Btk enzyme (His-Btk) (Homo sapiens (Human), UniProt Q06187); assay: Btk enzyme activity (IMAP fluorescence polarization assay)
Protocol: Inhibition of kinase activity can be measured using the Immobilized Metal Assay for Phosphochemicals (IMAP) assay. IMAP is a homogeneous fluorescence polarization (FP) assay based on affinity capture of phosphorylated peptide substrates. IMAP uses fluorescein-labeled peptide substrates that, upon phosphorylation by a protein kinase, bind to so-called IMAP nanoparticles, which are derivatized with trivalent metal complexes.
Final peptide substrate concentration in assay is 50 nM.

Lck enzyme = Lck enzyme (Homo sapiens (Human), UniProt P06239); assay: Lck enzyme activity (IMAP fluorescence polarization assay); settings: read-out: EC50 Lck activity values; IMAP, 60 min pre-incubation, 6 μM ATP; bin bound in μM
Src enzyme = Src enzyme (Homo sapiens (Human), UniProt P12931); assay: Src enzyme activity (IMAP fluorescence polarization assay); settings: read-out: EC50 Src activity values; IMAP, 60 min pre-incubation, 4 μM ATP
Lyn enzyme = Lyn enzyme (Homo sapiens (Human), UniProt P07948); assay: Lyn enzyme activity (IMAP fluorescence polarization assay); settings: read-out: EC50 Lyn activity values, 60 min pre-incubation, 2 μM ATP, bin bound in μM
FynT enzyme = FynT enzyme (Homo sapiens (Human), UniProt P06241); assay: FynT enzyme activity (IMAP fluorescence polarization assay); type: biochemical; settings: 60 min pre-incubation, 0.2 μM ATP
Protocol: FynT enzyme activity is measured using the IMAP (immobilized metal ion affinity-based fluorescence polarization) assay as outlined below.
Test compounds and FynT enzyme are pre-incubated 60 minutes at room temperature, before adding 5 μL/well of 400 nM Fluorescin labeled substrate peptide (p34cdc2 substrate peptide, e.g. #R7157/#R7172, Molecular Devices) in KR-buffer. Final peptide substrate concentration in assay is 100 nM. […] Following incubation for 2 h at room temperature the enzyme reaction is stopped by adding 40 μL/well IMAP Progressive Binding Solution (according to suppliers (Molecular Devices) protocol using 75% 1× buffer A and 25% 1× buffer B with 1:600 Progressive Binding Solution). After 60 min incubation at room temperature in the dark the FP signal is read. […] Values are calculated as percentage of the difference in readout (ΔmPi) of the controls with and without ATP. EC50 values are determined by curve fitting of the experimental results using Activity Base.

[1] = read-out: EC50 Btk activity values, IMAP, 60 min pre-incubation, 5 μM ATP, bin bound in nM
[2] = IMAP, 60 min pre-incubation, 5 μM ATP, bin bound in nM
[3] = IMAP, 60 min pre-incubation, 5 μM ATP, bin bound in μM

Chain of Src enzyme (P12931 whole entry, looked up): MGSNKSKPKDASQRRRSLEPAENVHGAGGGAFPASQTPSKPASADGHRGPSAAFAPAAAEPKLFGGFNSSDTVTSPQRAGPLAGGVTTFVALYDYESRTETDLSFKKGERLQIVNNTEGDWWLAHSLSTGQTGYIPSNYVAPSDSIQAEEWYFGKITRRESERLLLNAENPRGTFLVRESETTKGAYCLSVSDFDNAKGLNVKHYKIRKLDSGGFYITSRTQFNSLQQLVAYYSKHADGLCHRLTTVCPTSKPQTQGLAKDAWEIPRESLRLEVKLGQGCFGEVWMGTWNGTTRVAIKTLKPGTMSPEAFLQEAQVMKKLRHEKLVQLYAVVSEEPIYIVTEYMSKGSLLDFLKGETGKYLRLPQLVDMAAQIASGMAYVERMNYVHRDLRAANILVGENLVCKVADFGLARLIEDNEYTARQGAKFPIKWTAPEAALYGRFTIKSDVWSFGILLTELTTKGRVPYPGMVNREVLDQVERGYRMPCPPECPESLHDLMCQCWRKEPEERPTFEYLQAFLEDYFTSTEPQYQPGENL
Chain of FynT enzyme (P06241 other isoform, or with tags, fused parts or gaps): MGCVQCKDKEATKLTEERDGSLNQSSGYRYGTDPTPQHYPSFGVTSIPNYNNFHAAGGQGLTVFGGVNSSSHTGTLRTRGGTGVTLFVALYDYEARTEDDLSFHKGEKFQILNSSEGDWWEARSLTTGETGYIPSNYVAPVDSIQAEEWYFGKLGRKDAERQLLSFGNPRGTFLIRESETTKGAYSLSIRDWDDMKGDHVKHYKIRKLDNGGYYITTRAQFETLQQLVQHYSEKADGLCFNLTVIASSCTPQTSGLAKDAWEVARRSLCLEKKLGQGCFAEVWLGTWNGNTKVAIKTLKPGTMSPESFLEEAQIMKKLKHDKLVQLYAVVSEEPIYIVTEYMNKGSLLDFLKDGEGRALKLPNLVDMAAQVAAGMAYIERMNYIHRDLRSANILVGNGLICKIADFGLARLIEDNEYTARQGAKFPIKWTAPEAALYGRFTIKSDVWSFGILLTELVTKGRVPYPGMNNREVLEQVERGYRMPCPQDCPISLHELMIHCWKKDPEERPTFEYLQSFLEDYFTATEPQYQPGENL
Chain of Lck enzyme (P06239 whole entry): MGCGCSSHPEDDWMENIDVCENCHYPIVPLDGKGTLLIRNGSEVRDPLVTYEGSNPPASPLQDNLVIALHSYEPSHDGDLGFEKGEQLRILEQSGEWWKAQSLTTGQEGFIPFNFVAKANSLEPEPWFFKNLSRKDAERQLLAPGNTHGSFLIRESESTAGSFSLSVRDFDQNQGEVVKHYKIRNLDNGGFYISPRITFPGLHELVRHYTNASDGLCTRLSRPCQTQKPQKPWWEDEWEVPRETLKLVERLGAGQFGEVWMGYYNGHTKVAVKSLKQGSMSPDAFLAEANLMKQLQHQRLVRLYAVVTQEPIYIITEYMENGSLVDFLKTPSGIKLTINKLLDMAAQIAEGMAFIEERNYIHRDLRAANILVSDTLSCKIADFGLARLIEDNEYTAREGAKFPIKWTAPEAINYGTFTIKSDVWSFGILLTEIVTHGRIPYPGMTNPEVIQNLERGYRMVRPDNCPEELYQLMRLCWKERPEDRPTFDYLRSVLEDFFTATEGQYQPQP
Chain of Lyn enzyme (P07948 whole entry): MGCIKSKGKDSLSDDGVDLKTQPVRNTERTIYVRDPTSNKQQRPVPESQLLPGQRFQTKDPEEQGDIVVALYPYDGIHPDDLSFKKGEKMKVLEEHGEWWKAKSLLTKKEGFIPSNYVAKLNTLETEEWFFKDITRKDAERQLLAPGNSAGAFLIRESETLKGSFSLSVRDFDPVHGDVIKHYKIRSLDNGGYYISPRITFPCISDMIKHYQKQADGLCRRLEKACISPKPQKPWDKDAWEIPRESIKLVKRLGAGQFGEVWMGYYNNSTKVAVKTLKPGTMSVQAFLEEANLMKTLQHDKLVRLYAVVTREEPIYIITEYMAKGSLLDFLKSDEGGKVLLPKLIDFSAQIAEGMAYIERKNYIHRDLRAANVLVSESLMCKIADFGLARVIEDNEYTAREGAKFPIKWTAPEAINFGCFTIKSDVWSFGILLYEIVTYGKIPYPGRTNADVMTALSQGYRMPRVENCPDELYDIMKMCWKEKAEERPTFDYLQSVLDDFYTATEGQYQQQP
Chain of Btk enzyme (His-Btk) (Q06187 whole entry): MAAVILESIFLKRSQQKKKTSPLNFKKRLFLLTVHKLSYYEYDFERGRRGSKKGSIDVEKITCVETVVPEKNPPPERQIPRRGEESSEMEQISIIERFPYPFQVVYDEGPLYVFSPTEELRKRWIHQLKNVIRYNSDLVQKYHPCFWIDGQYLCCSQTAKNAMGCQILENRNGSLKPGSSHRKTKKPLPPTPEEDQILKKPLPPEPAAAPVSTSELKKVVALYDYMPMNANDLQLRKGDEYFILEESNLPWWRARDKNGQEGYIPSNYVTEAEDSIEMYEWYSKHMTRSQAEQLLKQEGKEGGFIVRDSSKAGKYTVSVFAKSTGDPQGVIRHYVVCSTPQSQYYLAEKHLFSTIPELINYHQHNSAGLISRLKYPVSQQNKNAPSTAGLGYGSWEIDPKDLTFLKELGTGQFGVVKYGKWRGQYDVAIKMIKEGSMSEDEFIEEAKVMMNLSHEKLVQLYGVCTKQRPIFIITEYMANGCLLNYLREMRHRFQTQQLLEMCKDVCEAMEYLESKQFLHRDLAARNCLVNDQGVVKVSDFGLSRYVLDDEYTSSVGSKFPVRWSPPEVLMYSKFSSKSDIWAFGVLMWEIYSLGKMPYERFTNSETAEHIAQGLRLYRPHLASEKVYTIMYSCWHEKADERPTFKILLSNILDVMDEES

SMILES	EC50 (Btk enzyme (His-Btk); [1]) [nM]	EC50 (Lck enzyme) [µM]	EC50 (Src enzyme) [nM]	EC50 (Lyn enzyme) [µM]	EC50 (FynT enzyme) [nM]	EC50 (Btk enzyme (His-Btk)) [nM]	EC50 Btk activity values (Btk enzyme (His-Btk); [2]) [nM]	EC50 Btk activity values (Btk enzyme (His-Btk); [3]) [nM]
CC#CC(=O)N1CCOC[C@H]1c1nc(-c2ccc(C(=O)Nc3ccccn3)cc2)c2c(N)nccn12 [Example 38, (R)-4-(8-Amino-3-(4-but-2-ynoylmorpholin-3-yl)imidazo[1,5-a]pyrazin-1-yl)-N-(pyridin-2-yl)benzamide]	< 10	≥ 1	≥ 1000	≥ 1	≥ 1000			
CC#CC(=O)N(C)[C@@H](C)c1nc(-c2ccc(C(=O)Nc3cc(C(F)(F)F)ccn3)cc2)c2c(N)nccn12 [Example 39, (S)-4-(8-amino-3-(1-(N-methylbut-2-ynamido)ethyl)imidazo[1,5-a]pyrazin-1-yl)-N-(4-(trifluoromethyl)pyridin-2-yl)benzamide]	< 10	≥ 1	≥ 1000	≥ 1	≥ 1000			
CN(C)CC#CC(=O)N1CCC[C@H]1c1nc(-c2ccc(C(=O)Nc3ccccn3)cc2)c2c(N)nccn12 [Example 40, (S)-4-(8-Amino-3-(1-(4-(dimethylamino)but-2-ynoyl)pyrrolidin-2-yl)imidazo[1,5-a]pyrazin-1-yl)-N-(pyridin-2-yl)benzamide]		≥ 1	≥ 1000	≥ 1	≥ 1000	10 to 100	<100	
COCC#CC(=O)N1CCC[C@H]1c1nc(-c2ccc(C(=O)Nc3ccccn3)cc2)c2c(N)nccn12 [Example 41, (S)-4-(8-Amino-3-(1-(4-methoxybut-2-ynoyl)pyrrolidin-2-yl)imidazo[1,5-a]pyrazin-1-yl)-N-(pyridin-2-yl)benzamide]		≥ 1	≥ 1000	≥ 1	≥ 1000	10 to 100	<100	
C=CC(=O)N1CCC[C@H]1c1nc(-c2ccc(C(=O)Nc3cc(F)ccn3)cc2)c2c(N)nccn12 [Example 42, (S)-4-(3-(1-acryloylpyrrolidin-2-yl)-8-aminoimidazo[1,5-a]pyrazin-1-yl)-N-(4-fluoropyridin-2-yl)benzamide]	< 10	≥ 1	≥ 1000	≥ 1	≥ 1000			
C=CC(=O)N1CCC[C@H]1c1nc(-c2ccc(C(=O)Nc3cc(N4CCCC4)ccn3)cc2)c2c(N)nccn12 [Example 43, (S)-4-(3-(1-acryloylpyrrolidin-2-yl)-8-aminoimidazo[1,5-a]pyrazin-1-yl)-N-(4-(pyrrolidin-1-yl)pyridin-2-yl)benzamide]	< 10	≥ 1	≥ 1000	≥ 1	≥ 1000			
CC#CC(=O)N1CCCC[C@H]1c1nc(-c2ccc(C(=O)Nc3cc(F)ccn3)cc2)c2c(N)nccn12 [Example 44, (S)-4-(8-amino-3-(1-but-2-ynoylpiperidin-2-yl)imidazo[1,5-a]pyrazin-1-yl)-N-(4-fluoropyridin-2-yl)benzamide]	< 10	≥ 1	≥ 1000	≥ 1	≥ 1000			
CC#CC(=O)N1CCCC[C@H]1c1nc(-c2ccc(C(=O)Nc3ccccn3)cc2)c2c(N)nccn12 [Example 45, (S)-4-(8-amino-3-(1-but-2-ynoylpiperidin-2-yl)imidazo[1,5-a]pyrazin-1-yl)-N-(pyridin-2-yl)benzamide]	< 10	≥ 1	≥ 1000	≥ 1	≥ 1000			
C=CC(=O)N1CCCC[C@H]1c1nc(-c2ccc(C(=O)Nc3ccccn3)cc2)c2c(N)nccn12 [Example 46, (S)-4-(3-(1-acryloylpiperidin-2-yl)-8-aminoimidazo[1,5-a]pyrazin-1-yl)-N-(pyridin-2-yl)benzamide]	< 10	≥ 1	≥ 1000	≥ 1	≥ 1000			
CC#CC(=O)N1CCC[C@H]1c1nc(-c2ccc(C(=O)Nc3cc(CCC)ccn3)cc2)c2c(N)nccn12 [Example 47, (S)-4-(8-amino-3-(1-but-2-ynoylpyrrolidin-2-yl)imidazo[1,5-a]pyrazin-1-yl)-N-(4-propylpyridin-2-yl)benzamide]	< 10	≥ 1	≥ 1000	≥ 1	≥ 1000			
CCCc1ccnc(NC(=O)c2ccc(-c3nc([C@H](C)N(C)C(=O)/C=C/COC)n4ccnc(N)c34)cc2)c1 [Example 48, (S,E)-4-(8-amino-3-(1-(4-methoxy-N-methylbut-2-enamido)ethyl)imidazo[1,5-a]pyrazin-1-yl)-N-(4-propylpyridin-2-yl)benzamide]	< 10	≥ 1	≥ 1000	≥ 1	≥ 1000			
C=CS(=O)(=O)N1CCCC[C@H]1c1nc(-c2ccc(C(=O)Nc3cc(CCC)ccn3)cc2)c2c(N)nccn12 [Example 49, (S)-4-(8-amino-3-(1-(vinylsulfonyl)piperidin-2-yl)imidazo[1,5-a]pyrazin-1-yl)-N-(4-propylpyridin-2-yl)benzamide]	< 10	≥ 1	≥ 1000	≥ 1	≥ 1000			
CC#CC(=O)N1CCC[C@H]1c1nc(-c2ccc(C(=O)Nc3ccccn3)c(F)c2)c2c(N)nccn12 [Example 50, (S)-4-(8-amino-3-(1-but-2-ynoylpyrrolidin-2-yl)imidazo[1,5-a]pyrazin-1-yl)-2-fluoro-N-(pyridin-2-yl)benzamide]		≥ 1	≥ 1000	≥ 1	≥ 1000	10 to 100	<100	
COC/C=C/C(=O)N1CCC[C@H]1c1nc(-c2ccc(C(=O)Nc3cc(OC)ccn3)cc2)c2c(N)nccn12 [Example 51, (S,E)-4-(8-amino-3-(1-(4-methoxybut-2-enoyl)pyrrolidin-2-yl)imidazo[1,5-a]pyrazin-1-yl)-N-(4-methoxypyridin-2-yl)benzamide]		≥ 1	≥ 1000	≥ 1	≥ 1000	10 to 100	<100	
COC/C=C/C(=O)N1CCC[C@H]1c1nc(-c2ccc(C(=O)Nc3ccccn3)c(F)c2)c2c(N)nccn12 [Example 52]		≥ 1	≥ 1000	≥ 1	≥ 1000	100 to 1000		<1000
COC/C=C/C(=O)N1CCC[C@H]1c1nc(-c2ccc(C(=O)Nc3cc(F)ccn3)cc2)c2c(N)nccn12 [Example 53, (S,E)-4-(8-amino-3-(1-(4-methoxybut-2-enoyl)pyrrolidin-2-yl)imidazo[1,5-a]pyrazin-1-yl)-N-(4-fluoropyridin-2-yl)benzamide]		≥ 1	≥ 1000	≥ 1	≥ 1000	100 to 1000		<1000
COC/C=C/C(=O)N1CCCC[C@H]1c1nc(-c2ccc(C(=O)Nc3ccon3)cc2)c2c(N)nccn12 [Example 54, (S,E)-4-(8-amino-3-(1-(4-methoxybut-2-enoyl)piperidin-2-yl)imidazo[1,5-a]pyrazin-1-yl)-N-(isoxazol-3-yl)benzamide]		≥ 1	≥ 1000	≥ 1	≥ 1000	100 to 1000		<1000
COC/C=C/C(=O)N1CCCC[C@H]1c1nc(-c2ccc(C(=O)Nc3ncccn3)cc2)c2c(N)nccn12 [Example 55, (S,E)-4-(8-amino-3-(1-(4-methoxybut-2-enoyl)piperidin-2-yl)imidazo[1,5-a]pyrazin-1-yl)-N-(pyrimidin-2-yl)benzamide]		≥ 1	≥ 1000	≥ 1	≥ 1000	100 to 1000		<1000
Cc1cc(C(=O)Nc2ccccn2)ccc1-c1nc([C@@H]2CCCCN2C(=O)c2ccnc(Cl)n2)n2ccnc(N)c12 [Example 56, 4-(8-amino-3-((S)-1-(2-chloropyrimidine-4-carbonyl)piperidin-2-yl)imidazo[1,5-a]pyrazin-1-yl)-3-methyl-N-(pyridin-2-yl)benzamide]		≥ 1	≥ 1000	≥ 1	≥ 1000	10 to 100	<100	
COC/C=C/C(=O)N1CCC[C@H]1c1nc(-c2ccc(C(=O)Nc3cc(C)ccn3)cc2)c2c(N)nccn12 [Example 57, (S,E)-4-(8-amino-3-(1-(4-methoxybut-2-enoyl)pyrrolidin-2-yl)imidazo[1,5-a]pyrazin-1-yl)-N-(4-methylpyridin-2-yl)benzamide]		≥ 1	≥ 1000	≥ 1	≥ 1000	10 to 100	<100	
